Consider eleven molecules from patent US20220324835A1 (Nurix Therapeutics, Inc., priority 2018, published 2022).

For experiment [1], the system named is T-cell. The experiment can be described thus: IL-2 secretion from T-cells co-stimulated with anti-CD3 and anti-CD28 antibody (Biological Example 2). The following applies: Homo sapiens, T-cell, fold change over baseline (anti-CD3/anti-CD28 stimulated T-cells without inhibitor), read-out: IL-2 secretion Anti-CD3/Anti-CD28 stimulation; for fold induction at 0.3 µM: 0.3 μM Cbl-b inhibitor; for fold induction at 1 µM: 1 μM Cbl-b inhibitor. Format: cell-based, human. In outline: (§1)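 Values are fold-change over baseline: readings (IL-2 release, CD25 staining) from inhibitor-treated T-cells divided against untreated cells […]. No detailed procedure stated.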

In experiment [2] the test system is T-cell. Description: CD25 cell surface staining on T-cells stimulated with anti-CD3 antibody alone (Biological Example 2). It counts as cell-based, human. The following applies: Homo sapiens, T-cell; 1 μM Cbl-b inhibitor; fold change over baseline (anti-CD3/anti-CD28 stimulated T-cells without inhibitor); read-out: CD25 staining Anti-CD3 stimulation.
In experiment [3] the target is T1, Cbl-b (Homo sapiens, UniProt Q13191). Description: Cbl-b inhibition assay (Cbl-b activity assay, FRET, Biological Example 1; 100 mM NaCl, 60 nM Src kinase). It counts as biochemical. The following applies: upper bound stated in text lists; read-out: IC50 values in the Cbl-b inhibition assay of Biological Example 1. In outline: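 Steps: Src kinase phosphorylates N-terminal biotinylated Avi-tagged Cbl-b; phosphorylated Cbl-b binds Bodipy-fluorescein ubiquitin-loaded UbcH5B; streptavidin-terbium on Cbl-b sits close to the fluorescein label, producing FRET. Inhibitors block UbcH5B-Ub binding.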
T1 sequence (Q13191 36-427): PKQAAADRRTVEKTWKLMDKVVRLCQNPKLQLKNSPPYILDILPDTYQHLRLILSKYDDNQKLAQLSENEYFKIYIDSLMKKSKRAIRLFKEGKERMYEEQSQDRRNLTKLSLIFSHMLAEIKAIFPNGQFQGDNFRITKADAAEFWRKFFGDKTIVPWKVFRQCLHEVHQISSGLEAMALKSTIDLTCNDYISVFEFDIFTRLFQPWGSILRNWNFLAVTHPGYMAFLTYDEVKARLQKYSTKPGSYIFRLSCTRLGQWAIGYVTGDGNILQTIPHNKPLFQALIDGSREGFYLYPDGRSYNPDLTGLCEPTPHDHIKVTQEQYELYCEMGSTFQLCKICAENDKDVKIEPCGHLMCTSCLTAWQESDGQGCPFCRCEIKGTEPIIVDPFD

Experiment [4] relates to T-cell. Description: CD25 cell surface staining on T-cells co-stimulated with anti-CD3 and anti-CD28 antibody (Biological Example 2). It counts as cell-based, human. The following applies: Homo sapiens, T-cell, fold change over baseline (anti-CD3/anti-CD28 stimulated T-cells without inhibitor), read-out: CD25 staining Anti-CD3/Anti-CD28 stimulation; for fold induction at 0.3 µM: 0.3 μM Cbl-b inhibitor; for fold induction at 1 µM: 1 μM Cbl-b inhibitor. In outline: as §1

Experiment [5] relates to T-cell. The experiment can be described thus: IL-2 secretion from T-cells stimulated with anti-CD3 antibody alone (Biological Example 2). Format: cell-based, human. Conditions: Homo sapiens, T-cell; 1 μM Cbl-b inhibitor; fold change over baseline (anti-CD3/anti-CD28 stimulated T-cells without inhibitor); read-out: IL-2 secretion Anti-CD3 stimulation.
Experiment [6] addresses T1, Cbl-b. The experiment can be described thus: Cbl-b activity assay (Cbl-b inhibition assay), TR-FRET of Cbl-b interaction with UbcH5B-Ub. Format: biochemical. The following applies: assay buffer with 100 mM NaCl, 60 nM Src kinase; read-out: Cbl-b activity IC50. In outline: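 Compound-treated Cbl-b was incubated 1.5 h with Src kinase (60 nM final; 30 nM for asterisked values, which also used 50 mM instead of 100 mM NaCl), 1 mM ATP and 5 mM MgCl2. Binding to fluorescent Ub-loaded UbcH5B (C85K mutant) was then read by TR-FRET after 1 h more.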
Background: In TR-FRET formats the signal depends on donor and acceptor labels being close together.

The IC50 is the concentration at which inhibition is half-maximal.

For `Cc1cc(C(=O)Nc2cccc(C3([C@H](F)c4nncn4C)COC3)c2)nc(C2CC2)n1` [Example 669a, (S)-2-cyclopropyl-N-(3-(3-(fluoro(4-methyl-4H-1,2,4-triazol-3-yl)methyl)oxetan-3-yl)phenyl)-6-methylpyrimidine-4-carboxamide], the fold induction at 0.3 µM in experiment [1] was 2.51 to 5; in experiment [4], 1.01 to 1.3. Moreover, the fold induction at 1 µM in experiment [1] was 5 to 7.5; in experiment [2], > 1; in experiment [4], 1.01 to 1.3; in experiment [5], 0.151 to 0.2. For the same molecule, the IC50 in experiment [3] is ≤ 100 nM; in experiment [6], < 100 nM.
`Cc1cc(C(=O)Nc2cccc(C3([C@@H](F)c4nncn4C)COC3)c2)nc(C2CC2)n1` [Example 669b, (R)-2-cyclopropyl-N-(3-(3-(fluoro(4-methyl-4H-1,2,4-triazol-3-yl)methyl)oxetan-3-yl)phenyl)-6-methylpyrimidine-4-carboxamide]: the figures for the fold induction at 0.3 µM in experiment [1] and in experiment [4] were 2.51 to 5 and 1.01 to 1.3, respectively. The fold induction at 1 µM was > 7.5 in experiment [1], > 1 in experiment [2], 1.31 to 1.5 in experiment [4] and > 0.201 in experiment [5]. In addition, the values for the IC50 in experiment [3] and in experiment [6] were ≤ 100 nM and < 100 nM, respectively.
Turning to `Cn1cnnc1[C@@H](F)C1(c2cccc(N3Cc4c(cc(CN5C6CCC5CC6)cc4C(F)(F)F)C3=O)c2)COC1` [Example 671a, (S)-6-((7-azabicyclo[2.2.1]heptan-7-yl)methyl)-2-(3-(3-(fluoro(4-methyl-4H-1,2,4-triazol-3-yl)methyl)oxetan-3-yl)phenyl)-4-(trifluoromethyl)isoindolin-1-one], the fold induction at 0.3 µM in experiment [1] is 2.51 to 5; in experiment [4], 1.51 to 1.75. In addition, the fold induction at 1 µM in experiment [1] was 5 to 7.5; in experiment [2], 0.601 to 0.8; in experiment [4], > 1.76; in experiment [5], > 0.201. The concentration for half-maximal inhibition (IC50) is ≤ 100 nM in experiment [3] and < 100 nM in experiment [6].
With `Cn1cnnc1[C@H](F)C1(c2cccc(N3Cc4c(cc(CN5C6CCC5CC6)cc4C(F)(F)F)C3=O)c2)COC1` [Example 671b, (R)-6-((7-azabicyclo[2.2.1]heptan-7-yl)methyl)-2-(3-(3-(fluoro(4-methyl-4H-1,2,4-triazol-3-yl)methyl)oxetan-3-yl)phenyl)-4-(trifluoromethyl)isoindolin-1-one], the fold induction at 0.3 µM was > 7.5 in experiment [1] and > 1.76 in experiment [4]. The fold induction at 1 µM is > 7.5 in experiment [1], > 1 in experiment [2], > 1.76 in experiment [4] and > 0.201 in experiment [5]. Further, the IC50 in experiment [3] is ≤ 100 nM; in experiment [6] it was < 100 nM.
As to `Cn1cnnc1[C@@H](F)C1(c2cccc(N3Cc4c(cc(CN5[C@@H]6CC[C@H]5C[C@@H](F)C6)cc4C(F)(F)F)C3=O)c2)COC1` [Example 672a, 2-(3-(3-((S)-fluoro(4-methyl-4H-1,2,4-triazol-3-yl)methyl)oxetan-3-yl)-phenyl)-6-(((1R,3S,5S)-3-fluoro-8-azabicyclo[3.2.1]octan-8-yl)methyl)-4-(trifluoromethyl)isoindolin-1-one], the fold induction at 0.3 µM was 2.51 to 5 in experiment [1] and > 1.76 in experiment [4]. Also, the fold induction at 1 µM was > 7.5 in experiment [1], 0.801 to 1 in experiment [2], > 1.76 in experiment [4] and > 0.201 in experiment [5]. Besides, the IC50 in experiment [3] is ≤ 100 nM; in experiment [6], < 100 nM.
Take `Cn1cnnc1[C@H](F)C1(c2cccc(N3Cc4c(cc(CN5[C@@H]6CC[C@H]5C[C@@H](F)C6)cc4C(F)(F)F)C3=O)c2)COC1` [Example 672b, 2-(3-(3-((R)-fluoro(4-methyl-4H-1,2,4-triazol-3-yl)methyl)oxetan-3-yl)phenyl)-6-(((1R,3R,5S)-3-fluoro-8-azabicyclo[3.2.1]octan-8-yl)methyl)-4-(trifluoromethyl)isoindolin-1-one]: the results for the fold induction at 0.3 µM in experiment [1] and in experiment [4] were > 7.5 and > 1.76, respectively. Also, the fold induction at 1 µM was > 7.5 in experiment [1], > 1 in experiment [2], > 1.76 in experiment [4] and > 0.201 in experiment [5]. The IC50 is ≤ 100 nM in experiment [3] and < 100 nM in experiment [6].
With `Cn1cnnc1[C@@H](F)C1(c2cccc(N3Cc4c(cc(CN5CCCC5)cc4C(F)(F)F)C3=O)c2)COC1` [Example 673a, (S)-2-(3-(3-(fluoro(4-methyl-4H-1,2,4-triazol-3-yl)methyl)oxetan-3-yl)phenyl)-6-(pyrrolidin-1-ylmethyl)-4-(trifluoromethyl)isoindolin-1-one], the values for the fold induction at 0.3 µM in experiment [1] and in experiment [4] were 5 to 7.5 and > 1.76, respectively. The fold induction at 1 µM in experiment [1] is > 7.5; in experiment [2] it was 0.801 to 1; in experiment [4] it was > 1.76; in experiment [5], > 0.201. Further, the IC50 was ≤ 100 nM in experiment [3] and < 100 nM in experiment [6].
As to `Cn1cnnc1[C@H](F)C1(c2cccc(N3Cc4c(cc(CN5CCCC5)cc4C(F)(F)F)C3=O)c2)COC1` [Example 673b, (R)-2-(3-(3-(fluoro(4-methyl-4H-1,2,4-triazol-3-yl)methyl)oxetan-3-yl)phenyl)-6-(pyrrolidin-1-ylmethyl)-4-(trifluoromethyl)isoindolin-1-one], the fold induction at 0.3 µM was > 7.5 in experiment [1] and 1.31 to 1.5 in experiment [4]. In addition, the fold induction at 1 µM in experiment [1] was > 7.5; in experiment [2] it was > 1; in experiment [4], 1.31 to 1.5; in experiment [5], > 0.201. Moreover, the IC50 in experiment [3] was ≤ 100 nM; in experiment [6] it was < 100 nM.
In the case of `Cn1cnnc1[C@@H](F)C1(c2cccc(N3Cc4c(cc(CN5CCCCC5)cc4C(F)(F)F)C3=O)c2)COC1` [Example 674a, (S)-2-(3-(3-(fluoro(4-methyl-4H-1,2,4-triazol-3-yl)methyl)oxetan-3-yl)phenyl)-6-(piperidin-1-ylmethyl)-4-(trifluoromethyl)isoindolin-1-one], the fold induction at 0.3 µM in experiment [1] is > 7.5; in experiment [4], 1.31 to 1.5. In addition, the fold induction at 1 µM is > 7.5 in experiment [1], > 1 in experiment [2], 1.51 to 1.75 in experiment [4] and 0.101 to 0.15 in experiment [5]. In addition, the IC50 in experiment [3] is ≤ 100 nM; in experiment [6], < 100 nM.
In the case of `Cn1cnnc1[C@H](F)C1(c2cccc(N3Cc4c(cc(CN5CCCCC5)cc4C(F)(F)F)C3=O)c2)COC1` [Example 674b, (R)-2-(3-(3-(fluoro(4-methyl-4H-1,2,4-triazol-3-yl)methyl)oxetan-3-yl)phenyl)-6-(piperidin-1-ylmethyl)-4-(trifluoromethyl)isoindolin-1-one], the fold induction at 0.3 µM in experiment [1] was > 7.5; in experiment [4] it was 1.01 to 1.3. Further, the fold induction at 1 µM in experiment [1] was > 7.5; in experiment [2] it was > 1; in experiment [4], 1.01 to 1.3; in experiment [5] it was > 0.201. Besides, the IC50 was ≤ 100 nM in experiment [3] and < 100 nM in experiment [6].
As for `Cn1cnnc1[C@@H](F)C1(c2cccc(N3Cc4c(cc(CN5C6CCCC5CC6)cc4C(F)(F)F)C3=O)c2)COC1` [Example 675a, 6-((8-azabicyclo[3.2.1]octan-8-yl)methyl)-2-(3-(3-((S)-fluoro(4-methyl-4H-1,2,4-triazol-3-yl)methyl)oxetan-3-yl)phenyl)-4-(trifluoromethyl)isoindolin-1-one], the results for the fold induction at 0.3 µM in experiment [1] and in experiment [4] were 2.51 to 5 and 1.01 to 1.3, respectively. In addition, the fold induction at 1 µM in experiment [1] was 5 to 7.5; in experiment [2], > 1; in experiment [4], 1.31 to 1.5; in experiment [5], 0.101 to 0.15. For the same molecule, the values for the IC50 in experiment [3] and in experiment [6] were ≤ 100 nM and < 100 nM, respectively.
